According to US6503881B2 (priority 1996, dated 2003):
Where two headings read alike, the source gives them in different places.

Key:
[1] = tested on: microorganisms with acquired resistance
[2] = tested on: inherently resistant microorganisms
[3] = E. coli ECO3, pair Mupirocin / MBI 11D18CN
[4] = S. aureus 19 MRSA, pair Piperacillin / MBI 11D18CN

W R I W K P K W R L P K W [MBI 11D18CN]
0.27: FIC ([1]; peptide + Tobramycin, S. maltophilia SMA029)
16 µg/mL: Peptide MIC Alone ([1]; A. baumannii ABI002 (7. Tobramycin)) | Peptide MIC + Piperacillin ([1]; E. cloacae 9) | Piperacillin MIC + Peptide ([1]; E. cloacae 9) | Peptide MIC + Piperacillin ([1]; E. cloacae 10) | Piperacillin MIC + Peptide ([1]; E. cloacae 10) | Peptide MIC Alone ([1]; E. faecalis EFS007 (8. Vancomycin)) | Piperacillin MIC + Peptide ([1]; S. maltophilia 2) | Piperacillin MIC + Peptide ([1]; S. maltophilia 14) | Peptide MIC Alone ([1]; S. maltophilia 14 (6. Piperacillin)) | Peptide MIC + Tobramycin ([1]; S. maltophilia SMA027) | MIC in combination [2]
0.5 µg/mL: Peptide MIC + Tobramycin ([1]; A. baumannii ABI002) | Vancomycin MIC + Peptide ([1]; E. faecium EFM004) | Vancomycin MIC + Peptide ([1]; E. faecium EFM007) | Ciprofloxacin MIC + Peptide ([1]; P. aeruginosa PA77)
1 µg/mL: Vancomycin MIC + Peptide ([1]; E. faecalis EFS007) | Vancomycin MIC + Peptide ([1]; E. faecium EFM009) | Vancomycin MIC + Peptide ([1]; E. faecium EFM010) | Peptide MIC + Tobramycin ([1]; S. epidermidis SE080) | MIC in combination [2, 3]
2 µg/mL: Vancomycin MIC + Peptide ([1]; E. faecalis EFS003) | Vancomycin MIC + Peptide ([1]; E. faecalis EFS009) | Peptide MIC ([1]; S. aureus MRSA 9, pair Mupirocin / MBI 11D18CN) | Peptide MIC Alone ([1]; S. epidermidis SE080 (7. Tobramycin)) | Tobramycin MIC + Peptide ([1]; S. maltophilia SMA029) | MIC in combination [2, 4]
0.14: FIC ([1]; peptide + Piperacillin, S. marcescens 1)
0.38: FIC ([1]; peptide + Piperacillin, A. calcoaceticus 3)
0.31: FIC ([1]; peptide + Piperacillin, E. cloacae 9) | FIC ([1]; peptide + Tobramycin, A. baumannii ABI001)
128 µg/mL: Peptide MIC Alone ([1]; P. aeruginosa PA77 (3. Ciprofloxacin))
8 µg/mL: Peptide MIC + Piperacillin ([1]; A. calcoaceticus 3) | Piperacillin MIC + Peptide ([1]; A. calcoaceticus 3) | Peptide MIC + Vancomycin ([1]; E. faecalis EFS007) | Peptide MIC Alone ([1]; E. faecalis EFS009 (8. Vancomycin)) | Peptide MIC Alone ([1]; E. faecium EFM004 (8. Vancomycin)) | Peptide MIC Alone ([1]; E. faecium EFM007 (8. Vancomycin)) | Peptide MIC Alone ([1]; E. faecium EFM009 (8. Vancomycin)) | Peptide MIC Alone ([1]; E. faecium EFM010 (8. Vancomycin)) | Peptide MIC + Piperacillin ([1]; S. maltophilia 2) | Peptide MIC + Piperacillin ([1]; S. maltophilia 14) | Peptide MIC + Tobramycin ([1]; S. maltophilia SMA029) | Piperacillin MIC + Peptide ([1]; S. marcescens 1)
0.56: FIC ([1]; peptide + Piperacillin, E. cloacae 10) | FIC ([1]; peptide + Piperacillin, P. aeruginosa 23) | FIC [2]
9.19: FIC ([1]; peptide + Tobramycin, S. maltophilia SMA027)
9.53: FIC ([1]; peptide + Tobramycin, A. baumannii ABI002)
0.59: FIC ([1]; peptide + Vancomycin, E. faecium EFM010)
>128 µg/mL: Peptide MIC Alone ([1]; S. maltophilia SMA027 (7. Tobramycin)) | Peptide MIC Alone ([1]; S. marcescens 1 (6. Piperacillin))
64 µg/mL: Peptide MIC Alone ([1]; A. baumannii ABI001 (7. Tobramycin)) | Peptide MIC Alone ([1]; E. cloacae 9 (6. Piperacillin)) | Peptide MIC Alone ([1]; E. faecalis EFS003 (8. Vancomycin)) | Piperacillin MIC + Peptide ([1]; P. aeruginosa 23) | Peptide MIC Alone ([1]; P. aeruginosa 23 (6. Piperacillin)) | Peptide MIC Alone ([1]; P. aeruginosa PA032 (7. Tobramycin))
0.63: FIC ([1]; peptide + Piperacillin, S. maltophilia 14) | FIC ([1]; peptide + Vancomycin, E. faecalis EFS007)
4 µg/mL: Peptide MIC + Tobramycin ([1]; A. baumannii ABI001) | Tobramycin MIC + Peptide ([1]; A. baumannii ABI001) | Tobramycin MIC + Peptide ([1]; A. baumannii ABI002) | Peptide MIC + Vancomycin ([1]; E. faecalis EFS009) | Peptide MIC + Vancomycin ([1]; E. faecium EFM004) | Peptide MIC + Vancomycin ([1]; E. faecium EFM007) | Peptide MIC + Vancomycin ([1]; E. faecium EFM009) | Peptide MIC + Vancomycin ([1]; E. faecium EFM010) | Peptide MIC + Piperacillin ([1]; P. aeruginosa 23) | Tobramycin MIC + Peptide ([1]; P. aeruginosa PA032) | Tobramycin MIC + Peptide ([1]; S. epidermidis SE080) | Tobramycin MIC + Peptide ([1]; S. maltophilia SMA027) | Peptide MIC + Piperacillin ([1]; S. marcescens 1) | MIC Alone [2, 3] | MIC Alone [2, 4]
0.75: FIC ([1]; peptide + Tobramycin, S. epidermidis SE080) | FIC ([1]; peptide + Vancomycin, E. faecalis EFS003) | FIC ([1]; peptide + Vancomycin, E. faecalis EFS009)
32 µg/mL: Peptide MIC Alone ([1]; A. calcoaceticus 3 (6. Piperacillin)) | Peptide MIC Alone ([1]; E. cloacae 10 (6. Piperacillin)) | Peptide MIC + Vancomycin ([1]; E. faecalis EFS003) | Peptide MIC + Tobramycin ([1]; P. aeruginosa PA032) | Peptide MIC + Ciprofloxacin ([1]; P. aeruginosa PA77) | Peptide MIC Alone ([1]; S. maltophilia 2 (6. Piperacillin)) | Peptide MIC Alone ([1]; S. maltophilia SMA029 (7. Tobramycin)) | MIC Alone [2]
11.00: FIC ([1]; peptide + Tobramycin, P. aeruginosa PA032)
0.50: FIC ([1]; peptide + Ciprofloxacin, P. aeruginosa PA77) | FIC ([1]; peptide + Piperacillin, S. maltophilia 2) | FIC ([1]; peptide + Vancomycin, E. faecium EFM004) | FIC ([1]; peptide + Vancomycin, E. faecium EFM007)
0.52: FIC ([1]; peptide + Vancomycin, E. faecium EFM009) | FIC [2, 4]
0.26: FIC [2, 3]
